In patent US20070167490A1, “Imino ether derivative compounds and drugs containing the compounds as the active ingredient” (Ono Pharmaceutical Co Ltd, priority 2003, published 2007):

| melting point [°C] | SMILES |
| --- | --- |
| 143.5 to 147 | CC/C(=N\OCCOc1cccc(CC(=O)O)c1)c1ccc(-n2cccn2)cc1 [14(35), (3-{2-[({(1E)-1-[4-(1H-pyrazol-1-yl)phenyl]propylidene}amino)oxy]ethoxy}phenyl)acetic acid] |
| 117 to 120 | CC/C(=N\OCCOc1cccc(CC(=O)O)c1)c1ccc(-c2cccs2)cc1 [14(30), (3-{2-[({(1E)-1-[4-(2-thienyl)phenyl]propylidene}amino)oxy]ethoxy}phenyl)acetic acid] |
